According to patent US20250108065A1 (AstraZeneca AB, priority 2022, published 2025):
Read-outs that look alike come from different tables or passages of the source.

Legend:
[1] = DAPA-HF (prediabetes); slope at 14-720 days
Description: (§1) “eGFR slope” is the change in […] over time. “eGFR” stands for the estimated glomerular filtration rate.
(§2) (See Inker et al., GFR Slope as a Surrogate End Point for Kidney Disease Progression in Clinical Trials: A Meta-Analysis of Treatment Effects of Randomized Controlled Trials. J Am Soc Nephrol. 2019; 30 (9): 1735-45; Levey et al., GFR decline as an end point for clinical trials in CKD. Am J Kidney Dis. 2014; 64 (6): 821-35.)

[2] = Description: as §1, §2
(§3) The patients without diabetes (or T2D) included those with prediabetes.

[3] = remark: listed apart in the source
Method: The DECLARE study enrolled a broad T2D patient population. By using parameters to select for a relatively healthy population that is close to the prediabetes population, the DECLARE population was split into 4 subgroups. The four subgroups in DECLARE are those with eGFR ≥60 ml/min/1.73 m^2, no history of HF at baseline and: • 1. HbA1c <7%, SBP <140 mmHg, and UACR ≤300 mg/g, or • 2. HbA1c <7%, SBP <140 mmHg, and UACR <30 mg/g, or • 3. T2D <5 years and UACR ≤300 mg/g, or • 4. T2D <5 years and UACR ≤30 mg/g.
as §2

[4] = DAPA-CKD
Description: as §3

[5] = non-diabetic and prediabetic patients, DAPA-HF and DAPA-CKD, 10 mg once daily
Description: DAPA-HF and DAPA-CKD included patients without diabetes, including those who qualify as prediabetic.

[6] = DAPA-HF
[7] = DAPA-CKD; remark: listed apart in the source
[8] = DAPA-HF; remark: listed apart in the source
[9] = DECLARE subgroup: HbA1c <7%, eGFR ≥60 ml/min/1.73 m^2, no history of HF, UACR ≤300 mg/g; Dapa 10 mg vs placebo
[10] = DAPA-HF, HbA1C < 6.5%, cited from earlier work
[11] = DAPA-CKD, HbA1C < 6.5%, cited from earlier work
[12] = Meta-analysis DAPA-HF/CKD, cited from earlier work
[13] = pre-diabetic 5.7% ≤ HbA1c < 6.5, Dapa vs placebo

CCOc1ccc(Cc2cc([C@@H]3O[C@H](CO)[C@@H](O)[C@H](O)[C@H]3O)ccc2Cl)cc1 [dapagliflozin]
eGFR chronic slope, Slope diff between Dapa 10 mg and Placebo [1]: 1.35 ml/min/1.73 m^2/yr
eGFR chronic slope, Slope diff between Dapa 10 mg and Placebo ([2]; DAPA-CKD (prediabetes), slope at 14 days-30 months): 1.44 ml/min/1.73 m^2/yr
placebo-corrected difference in eGFR slope ([2]; DAPA-CKD, T2D patients, from baseline to end of treatment): 1.18 ml/min/1.73 m^2/yr
placebo-corrected difference in eGFR slope ([2]; DAPA-CKD, T2D patients, from two weeks to end of treatment): 2.26 ml/min/1.73 m^2/yr
placebo-corrected difference in eGFR slope ([2]; DAPA-CKD, patients without T2D, from baseline to end of treatment): 0.46 ml/min/1.73 m^2/yr
placebo corrected difference in eGFR slope ([2]; DAPA-CKD, patients without T2D, from two weeks to end of treatment): 1.29 ml/min/1.73 m^2/yr
eGFR chronic slope, Slope diff between Dapa 10 mg and Placebo ([3]; DECLARE (Total Population), 6 months-2 yrs): 1.34 ml/min/1.73 m^2/yr
eGFR chronic slope, Slope diff between Dapa 10 mg and Placebo ([3]; DECLARE (Total Population), 6 months-3 yrs): 1.18 ml/min/1.73 m^2/yr
eGFR chronic slope, Slope diff between Dapa 10 mg and Placebo ([3]; DECLARE (Total Population), 6 months-4 yrs): 1.01 ml/min/1.73 m^2/yr
eGFR chronic slope, Slope diff between Dapa 10 mg and Placebo ([3]; DECLARE subgroup HbA1c <7%, SBP <140 mmHg, UACR <30 mg/g, eGFR ≥60, no HF, 6 months-2 yrs): 1.25 ml/min/1.73 m^2/yr
eGFR chronic slope, Slope diff between Dapa 10 mg and Placebo ([3]; DECLARE subgroup HbA1c <7%, SBP <140 mmHg, UACR <30 mg/g, eGFR ≥60, no HF, 6 months-3 yrs): 1.17 ml/min/1.73 m^2/yr
eGFR chronic slope, Slope diff between Dapa 10 mg and Placebo ([3]; DECLARE subgroup HbA1c <7%, SBP <140 mmHg, UACR <30 mg/g, eGFR ≥60, no HF, 6 months-3 yrs, listed as Dapa): 1.71 ml/min/1.73 m^2/yr
eGFR chronic slope, Slope diff between Dapa 10 mg and Placebo ([3]; DECLARE subgroup HbA1c <7%, SBP <140 mmHg, UACR <30 mg/g, eGFR ≥60, no HF, 6 months-4 yrs): 0.98 ml/min/1.73 m^2/yr
eGFR chronic slope, Slope diff between Dapa 10 mg and Placebo ([3]; DECLARE subgroup HbA1c <7%, SBP <140 mmHg, UACR ≤300 mg/g, eGFR ≥60, no HF, 6 months-2 yrs): 1.56 ml/min/1.73 m^2/yr
eGFR chronic slope, Slope diff between Dapa 10 mg and Placebo ([3]; DECLARE subgroup HbA1c <7%, SBP <140 mmHg, UACR ≤300 mg/g, eGFR ≥60, no HF, 6 months-3 yrs): 1.85 ml/min/1.73 m^2/yr
eGFR chronic slope, Slope diff between Dapa 10 mg and Placebo ([3]; DECLARE subgroup HbA1c <7%, SBP <140 mmHg, UACR ≤300 mg/g, eGFR ≥60, no HF, 6 months-4 yrs): 1.08 ml/min/1.73 m^2/yr
eGFR chronic slope, Slope diff between Dapa 10 mg and Placebo ([3]; DECLARE subgroup diabetes duration <5 years, UACR ≤30 mg/g, eGFR ≥60, no HF, 6 months-2 yrs): 1.03 ml/min/1.73 m^2/yr
eGFR chronic slope, Slope diff between Dapa 10 mg and Placebo ([3]; DECLARE subgroup diabetes duration <5 years, UACR ≤30 mg/g, eGFR ≥60, no HF, 6 months-3 yrs): 0.96 ml/min/1.73 m^2/yr
eGFR chronic slope, Slope diff between Dapa 10 mg and Placebo ([3]; DECLARE subgroup diabetes duration <5 years, UACR ≤30 mg/g, eGFR ≥60, no HF, 6 months-4 yrs): 0.86 ml/min/1.73 m^2/yr
eGFR chronic slope, Slope diff between Dapa 10 mg and Placebo ([3]; DECLARE subgroup diabetes duration <5 years, UACR ≤300 mg/g, eGFR ≥60, no HF, 6 months-2 yrs): 0.88 ml/min/1.73 m^2/yr
eGFR chronic slope, Slope diff between Dapa 10 mg and Placebo ([3]; DECLARE subgroup diabetes duration <5 years, UACR ≤300 mg/g, eGFR ≥60, no HF, 6 months-3 yrs): 0.92 ml/min/1.73 m^2/yr
eGFR chronic slope, Slope diff between Dapa 10 mg and Placebo ([3]; DECLARE subgroup diabetes duration <5 years, UACR ≤300 mg/g, eGFR ≥60, no HF, 6 months-4 yrs): 0.86 ml/min/1.73 m^2/yr
renal benefits following dapagliflozin treatment ([3]; DECLARE, T2D patients with eGFR 60 to 90 and ≥90 ml/min/1.73 m^2): reduced eGFR decline and albuminuria
HR, primary composite outcome of worsening of kidney function or death ([4]; patients with diabetes): 0.64
HR, primary composite outcome of worsening of kidney function or death ([4]; patients without diabetes): 0.50
Events of definite or probable diabetic ketoacidosis (DKA) [5]: not observed
major hypoglycemic AEs [5]: not observed
safety profile [5]: consistent with the profile established in patients with T2D
Event rate of new onset T2D ([6]; pre-diabetic 5.7% ≤ HbA1C < 6.5, 1748 participants): Dapa: 5.3 per 100 patient-years of follow-up
HR (95% CI) new onset T2D ([6]; pre-diabetic 5.7% ≤ HbA1C < 6.5, Dapa vs placebo): 0.72 (0.52, 0.99)
Event rate of new onset T2D ([7]; pre-diabetic 5.7% ≤ HbA1c < 6.5, 660 participants): Dapa: 2.7 per 100 patient-years of follow-up
HR (95% CI) new onset T2D [7, 13]: 0.59 (0.33, 1.04)
HR, primary composite outcome (CV death, hospitalization for HF, or urgent HF visit) ([8]; patients with diabetes): 0.75
HR, primary composite outcome (CV death, hospitalization for HF, or urgent HF visit) ([8]; patients without diabetes): 0.73
risk of worsening blood pressure (time to worsening in blood pressure category) [9]: lowered the risk of worsening blood pressure compared with placebo
Event rate of new onset T2D ([10]; 2605 participants): Dapa: 5.0 per 100 patient-years of follow-up
HR (95% CI) new onset T2D ([10]; Dapa vs placebo): 0.68 (0.50, 0.94)
Event rate of new onset T2D ([11]; 1398 participants): Dapa: 1.4 per 100 patient-years of follow-up
HR (95% CI) new onset T2D ([11]; Dapa vs placebo): 0.62 (0.36, 1.07)
Event rate of new onset T2D ([12]; HbA1c < 6.5%, 4003 participants): Dapa: 2.6 per 100 patient-years of follow-up
HR (95% CI) new onset T2D ([12]; HbA1c < 6.5%, Dapa vs placebo): 0.67 (0.51, 0.88)
Event rate of new onset T2D ([12]; pre-diabetic 5.7% ≤ HbA1c < 6.5, 2408 participants): Dapa: 4.2 per 100 patient-years of follow-up
HR (95% CI) new onset T2D [12, 13]: 0.69 (0.52, 0.91)
